According to PMC11406361, “Several orphan solute carriers functionally identified as organic cation transporters: Substrates specificity compared with known cation transporters” (The Journal of Biological Chemistry, 2024):
Like-named read-outs stand apart in the source and are kept apart here.

Key:
SLC35G3 [1] = molecular target: T1, SLC35G3 (Homo sapiens, UniProt Q8N808); test: Uptake ratio screen, SLC35G3-overexpressing HEK293 over empty vector cells; assay type: cell-based; parameters: by amplifying the entire gene-of-interest within the HEK293 genome via a long-range PCR
SLC47A1 = molecular target: T2, SLC47A1 (Homo sapiens, UniProt Q96FL8); test: Uptake ratio screen, SLC47A1-overexpressing HEK293 over empty vector cells; assay type: cell-based; conditions: 2.5 μM, 2 min
T2 sequence (Q96FL8 1-570): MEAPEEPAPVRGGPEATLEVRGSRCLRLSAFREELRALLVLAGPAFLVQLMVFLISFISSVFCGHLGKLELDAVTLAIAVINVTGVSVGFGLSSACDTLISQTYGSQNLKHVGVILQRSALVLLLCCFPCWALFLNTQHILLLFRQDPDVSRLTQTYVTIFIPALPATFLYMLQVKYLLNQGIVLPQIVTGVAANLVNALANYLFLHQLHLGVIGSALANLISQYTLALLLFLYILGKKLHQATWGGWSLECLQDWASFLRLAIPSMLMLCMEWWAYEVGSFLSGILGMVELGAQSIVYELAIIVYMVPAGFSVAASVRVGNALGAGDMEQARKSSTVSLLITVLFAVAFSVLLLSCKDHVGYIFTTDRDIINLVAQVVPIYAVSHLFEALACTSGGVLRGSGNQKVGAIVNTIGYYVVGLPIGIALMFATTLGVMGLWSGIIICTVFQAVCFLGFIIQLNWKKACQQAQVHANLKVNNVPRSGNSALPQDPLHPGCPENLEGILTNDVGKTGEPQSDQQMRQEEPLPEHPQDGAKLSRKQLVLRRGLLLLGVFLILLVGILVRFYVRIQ
Procedure: (§1) Typically discussed substrates of the proton organic-cation antiporter ([14]) are highlighted in dark green in Figure 1.
(§2) In preparation for transport experiments, 24-well plates were pre-coated with poly-D-lysine (Sigma-Aldrich) and 300,000 cells were plated per well and incubated for 48 h. Firstly, the 24-well plate was placed on a heating plate at 37 °C, and the cells were washed with 37 °C HBSS^+ buffer (Hank’s balanced salt solution supplemented with 10 mM Hepes and adjusted to pH 7.4; Thermo Fisher Scientific). The substance-of-interest, which was diluted in 37 °C HBSS^+ to a desired concentration, was added to the cells for exactly 2 min. […] The uptake was stopped with ice-cold HBSS^+, and the 24-well plate was removed from the heating plate. The cells were washed twice with the cold HBSS^+ before they were lysed for 15 min with 80% (v/v) acetonitrile containing the respective internal standard for mass spectrometry. For variations in seeded cell numbers between the cell lines, several wells were lysed in RIPA buffer and used for total protein quantification using a bicinchoninic assay ([74]) and bovine serum albumin as calibration.
(§3) The intracellular drug concentrations after transport experiments were analyzed by high-performance liquid chromatography coupled to tandem mass spectrometry analysis. The HPLC consisted of a Shimadzu Nexera HPLC System with a SIL-30AC autosampler, a LC-30AD pump, a CTO-20AC column oven, and a CBM-20A controller (Shimadzu). The reverse-phase chromatography of compounds was accomplished with a Brownlee SPP RP-Amide column with 4.6 × 100 mm inner dimensions, a particle size of 2.7 μm, and a preceding Phenomenex C-18 guard column. […] After separation, the detection of substances was performed with an API 4000 tandem mass spectrometer (AB SCIEX, https://sciex.com/support/software-support/software-downloads), followed by quantification of results with the Analyst software (AB SCIEX, version 1.6.2). […]
(§4) Transport-mediated net uptake was determined as fold-increase of transporter-overexpressing cells over empty vector–transfected control cells.

SLC47A2 = SLC47A2 (Homo sapiens, UniProt Q86VL8); test: Uptake ratio screen, SLC47A2-overexpressing HEK293 over empty vector cells; assay type: cell-based; conditions: 2.5 μM, 2 min
Procedure: as §1, §2, §3, §4

SLC22A18 = molecular target: T3, SLC22A18 (Homo sapiens, UniProt Q96BI1); test: Uptake ratio screen, SLC22A18-overexpressing HEK293 over empty vector cells; assay type: cell-based; conditions: 2.5 μM (nicotine 10 μM), 2 min
T3 construct: by amplifying the entire gene-of-interest within the HEK293 genome via a long-range PCR
Procedure: as §1
(§5) In preparation for transport experiments, 24-well plates were pre-coated with poly-D-lysine (Sigma-Aldrich) and 300,000 cells were plated per well and incubated for 48 h. Firstly, the 24-well plate was placed on a heating plate at 37 °C, and the cells were washed with 37 °C HBSS^+ buffer (Hank’s balanced salt solution supplemented with 10 mM Hepes and adjusted to pH 7.4; Thermo Fisher Scientific). The substance-of-interest, which was diluted in 37 °C HBSS^+ to a desired concentration, was added to the cells for exactly 2 min. […] For variations in seeded cell numbers between the cell lines, several wells were lysed in RIPA buffer and used for total protein quantification using a bicinchoninic assay ([74]) and bovine serum albumin as calibration.
(§6) The intracellular drug concentrations after transport experiments were analyzed by high-performance liquid chromatography coupled to tandem mass spectrometry analysis. […] After separation, the detection of substances was performed with an API 4000 tandem mass spectrometer (AB SCIEX, https://sciex.com/support/software-support/software-downloads), followed by quantification of results with the Analyst software (AB SCIEX, version 1.6.2). […]

SLC35F5 = molecular target: T4, SLC35F5 (Homo sapiens, UniProt Q8WV83); test: Uptake ratio screen, SLC35F5-overexpressing HEK293 over empty vector cells; assay type: cell-based; parameters: by amplifying the entire gene-of-interest within the HEK293 genome via a long-range PCR; conditions: 2.5 μM, 2 min
T4 sequence (Q8WV83 1-523): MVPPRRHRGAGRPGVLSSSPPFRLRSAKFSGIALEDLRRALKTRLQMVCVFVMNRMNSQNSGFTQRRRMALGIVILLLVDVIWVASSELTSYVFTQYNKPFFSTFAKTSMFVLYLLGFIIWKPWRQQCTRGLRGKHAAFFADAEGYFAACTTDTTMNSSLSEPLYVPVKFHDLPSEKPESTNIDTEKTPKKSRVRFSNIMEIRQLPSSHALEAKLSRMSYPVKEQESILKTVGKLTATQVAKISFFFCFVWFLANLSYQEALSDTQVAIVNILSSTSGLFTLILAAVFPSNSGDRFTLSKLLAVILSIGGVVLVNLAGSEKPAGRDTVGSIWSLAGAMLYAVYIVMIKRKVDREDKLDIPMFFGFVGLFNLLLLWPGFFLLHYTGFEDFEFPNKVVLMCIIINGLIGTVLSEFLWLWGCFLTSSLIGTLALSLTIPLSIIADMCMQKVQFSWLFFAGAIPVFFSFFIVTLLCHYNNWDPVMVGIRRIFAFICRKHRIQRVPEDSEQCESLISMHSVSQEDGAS
Procedure: as §1, §2
(§7) The intracellular drug concentrations after transport experiments were analyzed by high-performance liquid chromatography coupled to tandem mass spectrometry analysis. The HPLC consisted of a Shimadzu Nexera HPLC System with a SIL-30AC autosampler, a LC-30AD pump, a CTO-20AC column oven, and a CBM-20A controller (Shimadzu). The reverse-phase chromatography of compounds was accomplished with a Brownlee SPP RP-Amide column with 4.6 × 100 mm inner dimensions, a particle size of 2.7 μm, and a preceding Phenomenex C-18 guard column. The mobile phase was composed of an organic additive with acetonitrile:methanol 6:1 (v/v) in total concentrations between 3% and 50% (v/v) and 0.1% (v/v) formic acid in the aqueous component of the eluent. During separation, the column oven was held at 40 °C and the mobile phase was maintained at a flow rate of 300 or 400 μl/min. After separation, the detection of substances was performed with an API 4000 tandem mass spectrometer (AB SCIEX, https://sciex.com/support/software-support/software-downloads), followed by quantification of results with the Analyst software (AB SCIEX, version 1.6.2). The composition of chromatographic conditions, as well as detailed mass spectrometric detection parameters, are listed in Table S5.
as §4

SLC19A2 = molecular target: T5, SLC19A2 (Homo sapiens, UniProt O60779); test: Uptake ratio screen, SLC19A2-overexpressing HEK293 over empty vector cells; assay type: cell-based; conditions: 2.5 μM, 2 min
T5 construct: expressed in transfected cells
T5 sequence (O60779 1-497): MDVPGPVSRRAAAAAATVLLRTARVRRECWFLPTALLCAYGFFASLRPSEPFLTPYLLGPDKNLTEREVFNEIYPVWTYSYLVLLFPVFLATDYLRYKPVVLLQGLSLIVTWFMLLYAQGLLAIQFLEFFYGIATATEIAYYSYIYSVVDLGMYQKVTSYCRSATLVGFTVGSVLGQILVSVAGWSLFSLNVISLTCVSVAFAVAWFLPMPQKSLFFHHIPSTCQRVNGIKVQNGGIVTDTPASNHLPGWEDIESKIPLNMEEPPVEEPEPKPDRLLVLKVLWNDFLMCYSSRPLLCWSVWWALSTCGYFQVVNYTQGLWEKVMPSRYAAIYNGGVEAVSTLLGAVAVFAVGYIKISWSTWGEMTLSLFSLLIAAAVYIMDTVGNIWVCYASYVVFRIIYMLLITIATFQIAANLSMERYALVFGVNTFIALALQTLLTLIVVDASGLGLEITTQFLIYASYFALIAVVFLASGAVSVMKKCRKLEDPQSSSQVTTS
Procedure: as §1, §2, §3, §4

SLC35F4 = molecular target: T6, SLC35F4 (Homo sapiens, UniProt A4IF30); test: Uptake ratio screen, SLC35F4-overexpressing HEK293 over empty vector cells; assay type: cell-based; parameters: by amplifying the entire gene-of-interest within the HEK293 genome via a long-range PCR; conditions: 2.5 μM, 2 min
T6 sequence (A4IF30 1-521): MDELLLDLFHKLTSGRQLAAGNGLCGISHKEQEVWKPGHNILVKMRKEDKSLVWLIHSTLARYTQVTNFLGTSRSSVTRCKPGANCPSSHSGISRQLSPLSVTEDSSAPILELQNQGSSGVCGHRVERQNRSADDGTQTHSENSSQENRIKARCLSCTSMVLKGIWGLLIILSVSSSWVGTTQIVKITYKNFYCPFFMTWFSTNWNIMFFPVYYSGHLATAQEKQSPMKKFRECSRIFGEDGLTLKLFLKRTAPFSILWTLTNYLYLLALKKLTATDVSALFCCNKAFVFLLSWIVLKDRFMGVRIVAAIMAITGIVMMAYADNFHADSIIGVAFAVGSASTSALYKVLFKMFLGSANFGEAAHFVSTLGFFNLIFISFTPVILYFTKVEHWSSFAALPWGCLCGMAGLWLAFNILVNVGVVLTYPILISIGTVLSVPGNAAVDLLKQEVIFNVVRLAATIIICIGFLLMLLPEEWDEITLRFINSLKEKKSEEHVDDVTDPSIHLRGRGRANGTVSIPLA
Procedure: as §1, §2, §7, §4

SLC22A15 = molecular target: T7, SLC22A15 (Homo sapiens, UniProt Q8IZD6); test: Uptake ratio screen, SLC22A15-overexpressing HEK293 over empty vector cells; assay type: cell-based; conditions: 2.5 μM (nicotine 10 μM), 2 min
T7 construct: by amplifying the entire gene-of-interest within the HEK293 genome via a long-range PCR
Procedure: as §1, §2, §7, §4

SLC35G3 [2] = molecular target: T1, SLC35G3
SLC19A3 = molecular target: T8, SLC19A3 (Homo sapiens, UniProt Q9BZV2); test: Uptake ratio screen, SLC19A3-overexpressing HEK293 over empty vector cells; assay type: cell-based; conditions: 2.5 μM, 2 min
T8 construct: expressed in transfected cells
Procedure: as §1, §5, §6

SLC35E4 = molecular target: T9, SLC35E4 (Homo sapiens, UniProt Q6ICL7); test: Uptake ratio screen, SLC35E4-overexpressing HEK293 over empty vector cells; assay type: cell-based; parameters: by amplifying the entire gene-of-interest within the HEK293 genome via a long-range PCR; conditions: 2.5 μM, 2 min
T9 sequence (Q6ICL7 1-350): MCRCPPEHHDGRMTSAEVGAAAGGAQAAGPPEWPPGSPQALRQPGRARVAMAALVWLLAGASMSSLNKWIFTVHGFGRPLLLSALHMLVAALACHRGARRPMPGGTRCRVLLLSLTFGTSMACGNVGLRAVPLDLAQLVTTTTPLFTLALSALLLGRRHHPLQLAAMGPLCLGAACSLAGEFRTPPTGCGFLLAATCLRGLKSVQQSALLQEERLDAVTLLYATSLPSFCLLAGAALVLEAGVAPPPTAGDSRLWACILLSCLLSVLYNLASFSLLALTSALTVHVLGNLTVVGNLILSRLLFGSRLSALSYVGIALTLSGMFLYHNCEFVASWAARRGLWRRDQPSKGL
Procedure: as §1, §2, §3, §4

SLC35G3 [3] = molecular target: T1, SLC35G3; conditions: ratio of Vmax over KM
[4] = 2.5 μM substrate, 2 min, HEK293

T1 sequence (Q8N808 whole entry): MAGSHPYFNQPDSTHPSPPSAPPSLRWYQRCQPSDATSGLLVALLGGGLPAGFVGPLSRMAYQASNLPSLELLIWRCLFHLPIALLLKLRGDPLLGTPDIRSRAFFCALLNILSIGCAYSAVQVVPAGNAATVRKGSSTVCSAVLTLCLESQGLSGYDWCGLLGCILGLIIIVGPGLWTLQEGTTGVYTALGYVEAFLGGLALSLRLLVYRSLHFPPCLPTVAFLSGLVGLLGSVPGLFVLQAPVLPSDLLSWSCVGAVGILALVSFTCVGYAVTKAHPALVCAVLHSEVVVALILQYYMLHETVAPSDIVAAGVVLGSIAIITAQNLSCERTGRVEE
T7 sequence (Q8IZD6 whole entry): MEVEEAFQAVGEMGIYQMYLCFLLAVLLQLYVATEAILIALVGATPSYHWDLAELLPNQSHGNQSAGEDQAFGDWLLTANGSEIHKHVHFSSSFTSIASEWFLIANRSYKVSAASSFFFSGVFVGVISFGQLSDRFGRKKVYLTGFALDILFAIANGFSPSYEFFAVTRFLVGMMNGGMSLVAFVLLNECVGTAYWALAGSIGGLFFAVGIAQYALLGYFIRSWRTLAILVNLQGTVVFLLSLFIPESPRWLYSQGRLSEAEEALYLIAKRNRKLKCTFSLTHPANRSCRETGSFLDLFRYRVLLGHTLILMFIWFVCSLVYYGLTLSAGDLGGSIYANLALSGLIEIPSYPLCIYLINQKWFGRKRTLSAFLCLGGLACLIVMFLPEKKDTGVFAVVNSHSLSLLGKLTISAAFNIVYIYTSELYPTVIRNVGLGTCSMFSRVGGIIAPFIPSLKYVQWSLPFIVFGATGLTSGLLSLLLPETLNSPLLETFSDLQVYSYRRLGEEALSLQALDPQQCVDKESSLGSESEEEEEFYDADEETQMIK
T3 sequence (Q96BI1 whole entry): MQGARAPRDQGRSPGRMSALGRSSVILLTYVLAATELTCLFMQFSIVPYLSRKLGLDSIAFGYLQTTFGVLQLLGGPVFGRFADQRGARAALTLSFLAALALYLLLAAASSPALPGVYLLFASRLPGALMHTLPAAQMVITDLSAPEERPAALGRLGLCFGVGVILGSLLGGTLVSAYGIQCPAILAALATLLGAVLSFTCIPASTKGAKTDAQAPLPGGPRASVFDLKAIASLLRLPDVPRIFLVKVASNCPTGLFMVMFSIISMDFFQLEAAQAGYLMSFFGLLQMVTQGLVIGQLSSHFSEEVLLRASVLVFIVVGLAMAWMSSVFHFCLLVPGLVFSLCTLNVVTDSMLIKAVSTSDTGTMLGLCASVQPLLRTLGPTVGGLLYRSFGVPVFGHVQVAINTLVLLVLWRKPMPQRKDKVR
T8 sequence (Q9BZV2 whole entry): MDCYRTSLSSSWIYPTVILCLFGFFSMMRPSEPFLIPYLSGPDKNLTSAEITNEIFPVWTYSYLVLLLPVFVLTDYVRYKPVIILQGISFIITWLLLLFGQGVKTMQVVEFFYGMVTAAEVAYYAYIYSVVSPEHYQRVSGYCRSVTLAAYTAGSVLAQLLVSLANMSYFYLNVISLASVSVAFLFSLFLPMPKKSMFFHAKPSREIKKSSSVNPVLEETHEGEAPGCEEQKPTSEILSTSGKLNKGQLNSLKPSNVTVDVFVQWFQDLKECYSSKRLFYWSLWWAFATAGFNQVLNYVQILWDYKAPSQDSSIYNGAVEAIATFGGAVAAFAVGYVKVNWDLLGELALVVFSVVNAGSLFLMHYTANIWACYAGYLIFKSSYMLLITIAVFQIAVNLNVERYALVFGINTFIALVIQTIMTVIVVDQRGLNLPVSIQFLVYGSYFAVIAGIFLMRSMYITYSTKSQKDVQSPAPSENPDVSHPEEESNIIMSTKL
Chain of SLC47A2 (Q86VL8 1-566 isoform Q86VL8-3): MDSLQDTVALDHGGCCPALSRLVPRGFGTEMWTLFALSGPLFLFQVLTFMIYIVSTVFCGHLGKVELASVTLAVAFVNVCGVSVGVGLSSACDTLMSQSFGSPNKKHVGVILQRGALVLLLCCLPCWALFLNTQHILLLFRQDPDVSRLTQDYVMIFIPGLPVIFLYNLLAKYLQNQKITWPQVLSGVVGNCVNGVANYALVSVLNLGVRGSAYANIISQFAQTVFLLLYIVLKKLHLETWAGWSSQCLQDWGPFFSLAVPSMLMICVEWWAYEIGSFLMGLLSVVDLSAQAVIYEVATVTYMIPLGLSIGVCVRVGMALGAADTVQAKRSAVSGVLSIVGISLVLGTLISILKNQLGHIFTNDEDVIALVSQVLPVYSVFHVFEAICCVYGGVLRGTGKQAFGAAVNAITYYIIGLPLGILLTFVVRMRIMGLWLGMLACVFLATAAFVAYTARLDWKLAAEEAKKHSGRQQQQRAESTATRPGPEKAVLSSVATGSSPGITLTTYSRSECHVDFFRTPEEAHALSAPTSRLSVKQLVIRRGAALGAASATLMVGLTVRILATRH

SMILES: Nc1nc2c(ncn2COCCO)c(=O)[nH]1 [Acyclovir]
- Uptake data for SLC35G3, mean value (fold-increase over empty vector control) (SLC35G3 [1]; [4]): 1.21
- Uptake by SLC47A1 (MATE1) (in words) (SLC47A1): only transported by the MATEs
- Uptake by SLC47A2 (MATE2K) (in words) (SLC47A2): only transported by the MATEs

SMILES: COC(=O)C(c1ccccc1)C1CCCCN1 (stereo not drawn) [Methylphenidate]
- Uptake data for SLC35G3, mean value (fold-increase over empty vector control) (SLC35G3 [1]; [4]): 1.31
- Uptake by SLC22A18 (in words) (SLC22A18): newly identified substrates
- Uptake by SLC35F5 (in words) (SLC35F5): highest uptake rates
- Uptake by SLC19A2 (in words) (SLC19A2): enhance cell uptake
- Uptake by SLC35F4 (in words) (SLC35F4): enhanced cell uptake

SMILES: C[N+](C)(C)CC(O)CC(=O)[O-] (stereo not drawn) [Carnitine-d9]
- Uptake by SLC22A15 (in words) (SLC22A15): did not measure significant uptake
- Uptake data for SLC35G3, mean value (fold-increase over empty vector control) (SLC35G3 [1]; [4]): 1.05

SMILES: CCCN1CCCC[C@H]1C(=O)Nc1c(C)cccc1C [Ropivacaine]
- Uptake data for SLC35G3, mean value (fold-increase over empty vector control) (SLC35G3 [1]; [4]): 3.07
- Clint (±SEM) (SLC35G3 [2]): 3.64 (±1.93) μl × mg protein^-1 × min^-1

SMILES: C[n+]1ccc(-c2ccccc2)cc1 [MPP^+, 1-methyl-4-phenylpyridinium]
- Uptake by SLC19A3 (in words) (SLC19A3): moderate

SMILES: CC(C)C[C@H](N)C(=O)O [leucine]
- Uptake by SLC35E4 (in words) (SLC35E4): minor

SMILES: CNC(C)Cc1ccc2c(c1)OCO2 (stereo not drawn) [MDMA, 3,4-methylenedioxymethamphetamine]
- Uptake by SLC22A15 (in words) (SLC22A15): significantly increased the uptake
- Uptake data for SLC35G3, mean value (fold-increase over empty vector control) (SLC35G3 [1]): 1.58
- Uptake by SLC35F5 (in words) (SLC35F5): highest uptake rates
- Clint (±SEM) (SLC35G3 [3]): 4.31 (±2.26) μl × mg protein^-1 × min^-1
